Experiments:
[1] = molecular target: T1, human glucocorticoid receptor (Homo sapiens, UniProt P04150); assay: Glucocorticoid Receptor Binding Assay (I), fluorescence polarization competitor kit; settings: purified human recombinant full-length GR, Fluormone GS Red
T1 construct: purified human recombinant full-length glucocorticoid receptor (2 nM); purchased Invitrogen Part #2893
T1 sequence (P04150 1-777): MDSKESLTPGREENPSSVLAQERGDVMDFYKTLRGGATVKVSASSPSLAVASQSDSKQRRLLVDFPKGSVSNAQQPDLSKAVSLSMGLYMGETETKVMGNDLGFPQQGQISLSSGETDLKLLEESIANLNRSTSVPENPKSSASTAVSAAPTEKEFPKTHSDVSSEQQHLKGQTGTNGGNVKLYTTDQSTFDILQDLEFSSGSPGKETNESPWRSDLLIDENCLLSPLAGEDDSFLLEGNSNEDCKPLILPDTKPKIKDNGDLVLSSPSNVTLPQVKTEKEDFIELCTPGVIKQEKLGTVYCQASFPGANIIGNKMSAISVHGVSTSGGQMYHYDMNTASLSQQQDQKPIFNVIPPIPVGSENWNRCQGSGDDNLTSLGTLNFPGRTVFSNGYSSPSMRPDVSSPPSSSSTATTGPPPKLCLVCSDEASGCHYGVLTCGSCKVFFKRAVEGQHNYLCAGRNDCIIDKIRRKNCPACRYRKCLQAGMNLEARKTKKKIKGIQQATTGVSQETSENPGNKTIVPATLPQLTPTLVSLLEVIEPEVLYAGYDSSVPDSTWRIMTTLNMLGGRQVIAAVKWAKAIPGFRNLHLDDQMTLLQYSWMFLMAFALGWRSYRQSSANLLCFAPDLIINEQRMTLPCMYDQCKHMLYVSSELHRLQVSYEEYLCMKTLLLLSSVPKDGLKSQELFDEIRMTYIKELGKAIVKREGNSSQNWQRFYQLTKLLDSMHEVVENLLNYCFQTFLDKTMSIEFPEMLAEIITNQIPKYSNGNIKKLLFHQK
Experimental: Glucocorticoid Receptor Binding Assay (I)^a
In order to assess the affinity of test compounds for the human glucocorticoid receptor, a commercially available kit was used (Glucocorticoid Receptor Competitor Assay Kit, Invitrogen Part #2893). Briefly, purified human recombinant full-length glucocorticoid receptor (2 nM) was mixed with fluorescently labeled glucocorticoid (1 nM Fluormone GS Red) in the presence or absence of test compound. After two hour incubation at room temperature in the dark, the fluorescence polarization (FP) of the samples was measured. The FP of a mixture of receptor, fluorescent probe (i.e. Fluormone GS Red) and 5 μM dexamethasone represented background fluorescence or 100% inhibition, whereas, the FP of the mixture without dexamethasone (but in the presence of vehicle) was taken to be 100% binding. The percentage inhibition of test compounds were then compared to the sample with 5 μM dexamethasone and expressed as % relative binding activity with dexamethasone being 100% and no inhibition is 0%. Test compounds were analyzed in the concentration range from 8.5E-05 μM to 5 μM.

[2] = tested on: AP-1 induced transcriptional activity; assay: Cellular Transrepressional Assay (AP-1 luciferase reporter in A549 cell, PMA activated); type: cell-based; settings: Homo sapiens, A549, 7 h, pAP-1-Luc; for Emax: maximum inhibition, PMA, read-out: AP-1 Max % inh (Cellular Transrepression Assay); for EC50: 10 ng/ml PMA, 7 hours, read-out: AP-1 EC50, nM (Cellular Transrepression Assay)
Method in brief: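 A549 cells stably carrying a 7×AP-1-site luciferase reporter were stimulated with 10 ng/ml PMA for 7 h alongside test molecules (0.1 nM to 40 μM). Luminescence read 10 min after luciferase reagent; repression expressed as % decrease of PMA-only signal, EC50 from curve fitting at 50% reduction of AP-1 activity.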

| Structure (SMILES) | Ki [1] [nM] | EC50 [2] [nM] | Emax [2] [%] |
| --- | --- | --- | --- |
| CC(C)(C(=O)Nc1nncs1)C(c1ccccc1)c1ccc(Br)s1 (single isomer, unassigned) [Example 84, 3-(5-bromo-2-thienyl)-2,2-dimethyl-3-phenyl-N-1,3,4-thiadiazol-2-ylpropanamide] | 5.06 | – | – |
| CC(C(=O)Nc1nncs1)C(c1ccccc1)c1ccc(-c2ccc(C(=O)N(C)C)cc2)s1 (single isomer, unassigned) [Example 138, N,N-dimethyl-4-(5-(2-methyl-3-oxo-1-phenyl-3-(1,3,4-thiadiazol-2-ylamino)propyl)-2-thienyl)benzamide] | 360 | – | – |
| CC(C(=O)Nc1nncs1)C(c1ccccc1)c1ccc(-c2ccc(C(=O)N(C)C)cc2)s1 (single isomer, unassigned) [Example 139, N,N-dimethyl-4-(5-(2-methyl-3-oxo-1-phenyl-3-(1,3,4-thiadiazol-2-ylamino)propyl)-2-thienyl)benzamide] | 259 | – | – |
| C[C@@H](C(=O)Nc1nncs1)[C@H](c1ccccc1)c1ccc(-c2ccc(C(=O)N3CCOCC3)cc2)s1 (stereo in doubt) [Example 152, (2R,3R)-2-methyl-3-(5-(4-(4-morpholinylcarbonyl)phenyl)-2-thienyl)-3-phenyl-N-1,3,4-thiadiazol-2-ylpropanamide] | 4.85 | – | – |
| CC(C)(C(=O)Nc1nncs1)C(c1ccccc1)c1ccc(Br)s1 (stereo not shown) [Example 3, -(5-bromo-2-thienyl)-2,2-dimethyl-3-phenyl-N-1,3,4-thiadiazol-2-ylpropanamide] | 3.66 | – | – |
| CC(C)(C(=O)Nc1nccs1)C(c1ccccc1)c1ccc(Br)s1 (stereo not shown) [Example 4, 3-(5-bromo-2-thienyl)-2,2-dimethyl-3-phenyl-N-1,3-thiazol-2-ylpropanamide] | 6.97 | – | – |
| CC(C)Oc1ccc(-c2ccc(C(c3ccccc3)C(C)(C)C(=O)Nc3nncs3)cn2)cc1F (stereo not shown) [Example 29, 3-(6-(3-fluoro-4-isopropoxyphenyl)-3-pyridinyl)-2,2-dimethyl-3-phenyl-N-1,3,4-thiadiazol-2-ylpropanamide] | 7.69 | – | – |
| COc1ccc(-c2ccc(C(c3cccc(F)c3)C(C)(C)C(=O)Nc3nncs3)s2)cc1 (stereo not shown) [Example 35, 3-(3-fluorophenyl)-3-(5-(4-methoxyphenyl)-2-thienyl)-2,2-dimethyl-N-1,3,4-thiadiazol-2-ylpropanamide] | 5.75 | – | – |
| CC(C)Oc1ccc(-c2ccc(C(c3cccc(F)c3)C(C)(C)C(=O)Nc3nncs3)s2)cc1F (stereo not shown) [Example 37, 3-(5-(3-fluoro-4-isopropoxyphenyl)-2-thienyl)-3-(3-fluorophenyl)-2,2-dimethyl-N-1,3,4-thiadiazol-2-ylpropanamide] | 53.5 | – | – |
| CC(C)(C(=O)Nc1nncs1)C(c1ccccc1)c1ccc(-c2ccc(C(=O)N3CCCCC3)cc2)s1 (stereo not shown) [Example 46, 2,2-dimethyl-3-phenyl-3-(5-(4-(1-piperidinylcarbonyl)phenyl)-2-thienyl)-N-1,3,4-thiadiazol-2-ylpropanamide] | 11.7 | – | – |
| CCN(C)C(=O)c1ccc(-c2ccc([C@@H](c3cccc(F)c3)[C@@H](C)C(=O)Nc3nncs3)s2)cc1Cl [Example 119, 2-chloro-N-ethyl-4-(5-((1R,2R)-1-(3-fluorophenyl)-2-methyl-3-oxo-3-(1,3,4-thiadiazol-2-ylamino)propyl)-2-thienyl)-N-methylbenzamide] | – | 22.7 | 47.6 |
| CCN(C)C(=O)c1ccc(-c2ccc([C@@H](c3cccc(F)c3)[C@@H](C)C(=O)Nc3nncs3)s2)cc1F [Example 120, N-ethyl-2-fluoro-4-(5-((1R,2R)-1-(3-fluorophenyl)-2-methyl-3-oxo-3-(1,3,4-thiadiazol-2-ylamino)propyl)-2-thienyl)-N-methylbenzamide] | – | 22.9 | 42.9 |
| C[C@@H](C(=O)Nc1nncs1)[C@H](c1cccc(F)c1)c1ccc(-c2ccc(C(=O)N3CCC(F)(F)C3)cc2)s1 [Example 121, (2R,3R)-3-(5-(4-((3,3-difluoro-1-pyrrolidinyl)carbonyl)phenyl)-2-thienyl)-3-(3-fluorophenyl)-2-methyl-N-1,3,4-thiadiazol-2-ylpropanamide] | – | 66.8 | 28.7 |
| C[C@@H](C(=O)Nc1nncs1)[C@H](c1ccccc1)c1ccc(-c2ccc(C(=O)N(C)C)cc2)s1 [Example 140, N,N-dimethyl-4-(5-((1R,2R)-2-methyl-3-oxo-1-phenyl-3-(1,3,4-thiadiazol-2-ylamino)propyl)-2-thienyl)benzamide] | – | 15.2 | 54.1 |
| CCN(C)C(=O)c1ccc(-c2ccc([C@@H](c3cccc(F)c3)[C@@H](C)C(=O)Nc3nnc(C)s3)s2)cc1 [Example 141, N-Ethyl-4-(5-((1R,2R)-1-(3-fluorophenyl)-2-methyl-3-((5-methyl-1,3,4-thiadiazol-2-yl)amino)-3-oxopropyl)-2-thienyl)-N-methylbenzamide] | – | 62.2 | 46 |
| CCN(C)C(=O)c1ccc(-c2ccc([C@@H](c3cccc(F)c3)[C@@H](C)C(=O)Nc3nccs3)s2)cc1 [Example 143, N-ethyl-4-(5-((1R,2R)-1-(3-fluorophenyl)-2-methyl-3-oxo-3-(1,3-thiazol-2-ylamino)propyl)-2-thienyl)-N-methylbenzamide] | – | 16.9 | 63.6 |

Now from value to compound, other results behind:

| Ki [1] [nM] | EC50 [2] [nM] | Structure (SMILES) | Emax [2] [%] |
| --- | --- | --- | --- |
| 2.79 | – | CC(C(=O)Nc1nncs1)C(c1cccc(F)c1)c1ccc(Br)s1 (mixture of isomers) [Example 93, 3-(5-bromo-2-thienyl)-3-(3-fluorophenyl)-2-methyl-N-1,3,4-thiadiazol-2-ylpropanamide] | – |
| 3.2 | – | CC(C(=O)Nc1nncs1)C(c1ccccc1)c1ccc(Br)s1 (mixture of isomers) [Example 132, 3-(5-bromo-2-thienyl)-2-methyl-3-phenyl-N-1,3,4-thiadiazol-2-ylpropanamide] | – |
| 2.74 | – | CC(C)(C(=O)Nc1nncs1)C(c1ccccc1)c1ccc(Br)s1 (single isomer, unassigned) [Example 85, 3-(5-bromo-2-thienyl)-2,2-dimethyl-3-phenyl-N-1,3,4-thiadiazol-2-ylpropanamide] | – |
| 1.06 | – | CC(C(=O)Nc1nncs1)C(c1ccccc1)c1ccc(Br)s1 (single isomer, unassigned) [Example 134, 3-(5-bromo-2-thienyl)-2-methyl-3-phenyl-N-1,3,4-thiadiazol-2-ylpropanamide] | – |
| 1.25 | – | CC(C(=O)Nc1nncs1)C(c1ccccc1)c1ccc(Br)s1 (single isomer, unassigned) [Example 135, 3-(5-bromo-2-thienyl)-2-methyl-3-phenyl-N-1,3,4-thiadiazol-2-ylpropanamide] | – |
| 2.15 | – | CCN(C)C(=O)c1ccc(-c2ccc([C@@H](c3ccccc3)[C@@H](C)C(=O)Nc3nncs3)s2)cc1 (stereo in doubt) [Example 154, N-ethyl-N-methyl-4-(5-((1R,2R)-2-methyl-3-oxo-1-phenyl-3-(1,3,4-thiadiazol-2-ylamino)propyl)-2-thienyl)benzamide] | – |
| 2.93 | – | CC(C)(C(=O)Nc1nncs1)C(c1cc(F)cc(F)c1)c1ccc(Br)s1 (stereo not shown) [Example 19, 3-(5-bromo-2-thienyl)-3-(3,5-difluorophenyl)-2,2-dimethyl-N-1,3,4-thiadiazol-2-ylpropanamide] | – |
| 1.46 | – | CN(C)C(=O)c1ccc(-c2ccc(C(c3cccc(F)c3)C(C)(C)C(=O)Nc3nncs3)s2)cc1 (stereo not shown) [Example 36, 4-(5-(1-(3-fluorophenyl)-2,2-dimethyl-3-oxo-3-(1,3,4-thiadiazol-2-ylamino)propyl)-2-thienyl)-N,N-dimethylbenzamide] | – |
| 0.89 | – | CN(C)C(=O)c1ccc(-c2ccc(C(c3ccccc3)C(C)(C)C(=O)Nc3nncs3)s2)cc1 (stereo not shown) [Example 44, 4-(5-(2,2-dimethyl-3-oxo-1-phenyl-3-(1,3,4-thiadiazol-2-ylamino)propyl)-2-thienyl)-N,N-dimethylbenzamide] | – |

Reference: patent publication US8222247B2, “Modulators of glucocorticoid receptor, AP-1, and/or NF-kappabeta activity and use thereof” (Bristol-Myers Squibb Company, priority 2006, dated 2012)
